From the NIST ThermoML archive (doi:10.1021/acs.jced.8b00692)

Test: xn = mol fraction of the nth substance listed
Details: 102 kPa, Liquid; for viscosity: Concentric cylinders viscometry; for speed of sound: Frequency=3 MHz, Single path-length method; for mass density: Vibrating tube method

CCCC1CCCCC1 [1-cyclohexylpropane] + CCCCCCCCCCCCCCCC
Details	mass density [kg/m3]	speed of sound [m/s]	viscosity [mPa·s]
293.15 K, x1 = 0.2001	775.57	1349.9	2.9
293.15 K, x1 = 0.4008	778.35	1341.6	2.35
293.15 K, x1 = 0.5001	779.98	1336.9	2.11
293.15 K, x1 = 0.6009	781.97	1331.7	1.85
293.15 K, x1 = 0.8301	787.65	1318.8	1.34
293.15 K, x1 = 1	793.54	1307.8	0.996
303.15 K, x1 = 0.2001	768.58	1312.1	2.34
303.15 K, x1 = 0.4008	771.27	1303.8	1.94
303.15 K, x1 = 0.5001	772.84	1298.4	1.74
303.15 K, x1 = 0.6009	774.74	1293.3	1.55
303.15 K, x1 = 0.8301	780.16	1279.2	1.14
303.15 K, x1 = 1	785.73	1266.2	0.86
313.15 K, x1 = 0.2001	761.59	1275.2	1.93
313.15 K, x1 = 0.4008	764.18	1266.6	1.61
313.15 K, x1 = 0.5001	765.69	1260.8	1.46
313.15 K, x1 = 0.6009	767.5	1255.6	1.31
313.15 K, x1 = 0.8301	772.64	1240.3	0.975
313.15 K, x1 = 1	777.9	1225.6	0.75
323.15 K, x1 = 0.2001	754.61	1239	1.61
323.15 K, x1 = 0.4008	757.08	1230	1.37
323.15 K, x1 = 0.5001	758.53	1224	1.25
323.15 K, x1 = 0.6009	760.24	1218.5	1.13
323.15 K, x1 = 0.8301	765.09	1202	0.858
323.15 K, x1 = 1	770.04	1185.9	0.663
333.15 K, x1 = 0.2001	747.61	1203.8	1.37
333.15 K, x1 = 0.4008	749.96	1194.3	1.18
333.15 K, x1 = 0.5001	751.33	1188	1.07
333.15 K, x1 = 0.6009	752.95	1182.1	0.97
333.15 K, x1 = 0.8301	757.51	1164.5	0.747
333.15 K, x1 = 1	762.12	1147.3	0.584
343.15 K, x1 = 0.2001	740.6	–	1.19
343.15 K, x1 = 0.4008	742.9	–	1.03
343.15 K, x1 = 0.5001	744.1	–	0.946
343.15 K, x1 = 0.6009	745.6	–	0.863
343.15 K, x1 = 0.8301	749.8	–	0.673
343.15 K, x1 = 1	754.2	–	0.544
353.15 K, x1 = 0.2001	733.6	–	1.02
353.15 K, x1 = 0.4008	735.7	–	0.905
353.15 K, x1 = 0.5001	736.9	–	0.834
353.15 K, x1 = 0.6009	738.3	–	0.764
353.15 K, x1 = 0.8301	742.2	–	0.594
353.15 K, x1 = 1	746.1	–	0.477
363.15 K, x1 = 0.2001	726.5	–	0.918
363.15 K, x1 = 0.4008	728.5	–	0.805
363.15 K, x1 = 0.5001	729.5	–	0.746
363.15 K, x1 = 0.6009	730.8	–	0.685
363.15 K, x1 = 0.8301	734.6	–	0.503
363.15 K, x1 = 1	738	–	0.452

CCCCCCCCCCC1CCCCC1 [decylcyclohexane] + CCCCCCCCCCCCCCCC
Details	mass density [kg/m3]	speed of sound [m/s]	viscosity [mPa·s]
293.15 K, x1 = 0.2	781.98	1366.2	3.73
293.15 K, x1 = 0.4	790.75	1375.8	4.03
293.15 K, x1 = 0.4999	795.26	1380.7	4.19
293.15 K, x1 = 0.6008	799.82	1385.6	4.36
293.15 K, x1 = 0.7237	805.48	1392	4.63
293.15 K, x1 = 1	818.55	1406.7	5.32
303.15 K, x1 = 0.2	775.08	1329	2.95
303.15 K, x1 = 0.4	783.89	1338.4	3.16
303.15 K, x1 = 0.4999	788.42	1343.3	3.29
303.15 K, x1 = 0.6008	792.99	1348.3	3.41
303.15 K, x1 = 0.7237	798.67	1354.7	3.6
303.15 K, x1 = 1	811.78	1369.4	4.09
313.15 K, x1 = 0.2	768.19	1292.6	2.39
313.15 K, x1 = 0.4	777.04	1301.9	2.54
313.15 K, x1 = 0.4999	781.59	1306.8	2.64
313.15 K, x1 = 0.6008	786.18	1311.8	2.73
313.15 K, x1 = 0.7237	791.88	1318.3	2.87
313.15 K, x1 = 1	805.02	1333	3.23
323.15 K, x1 = 0.2	761.3	1256.8	1.97
323.15 K, x1 = 0.4	770.2	1266.2	2.09
323.15 K, x1 = 0.4999	774.76	1271.1	2.18
323.15 K, x1 = 0.6008	779.37	1276.2	2.24
323.15 K, x1 = 0.7237	785.08	1282.7	2.34
323.15 K, x1 = 1	798.27	1297.5	2.62
333.15 K, x1 = 0.2	754.42	1221.9	1.65
333.15 K, x1 = 0.4	763.35	1231.6	1.75
333.15 K, x1 = 0.4999	767.92	1236.3	1.81
333.15 K, x1 = 0.6008	772.55	1241.5	1.87
333.15 K, x1 = 0.7237	778.28	1248.2	1.95
333.15 K, x1 = 1	791.5	1262.9	2.16
343.15 K, x1 = 0.2	747.5	–	1.42
343.15 K, x1 = 0.4	756.5	–	1.48
343.15 K, x1 = 0.4999	761.3	–	1.54
343.15 K, x1 = 0.6008	765.8	–	1.58
343.15 K, x1 = 0.7237	771.6	–	1.64
343.15 K, x1 = 1	784.8	–	1.82
353.15 K, x1 = 0.2	740.7	–	1.21
353.15 K, x1 = 0.4	749.7	–	1.28
353.15 K, x1 = 0.4999	754.4	–	1.32
353.15 K, x1 = 0.6008	759	–	1.36
353.15 K, x1 = 0.7237	764.8	–	1.41
353.15 K, x1 = 1	778	–	1.55
363.15 K, x1 = 0.2	733.7	–	1.08
363.15 K, x1 = 0.4	742.8	–	1.1
363.15 K, x1 = 0.4999	747.6	–	1.17
363.15 K, x1 = 0.6008	752.1	–	1.18
363.15 K, x1 = 0.7237	758	–	1.22
363.15 K, x1 = 1	771.2	–	1.34
373.15 K, x1 = 0.2	726.8	–	0.926
373.15 K, x1 = 0.4	735.9	–	0.979
373.15 K, x1 = 0.4999	740.7	–	1.01
373.15 K, x1 = 0.6008	745.2	–	1.04
373.15 K, x1 = 0.7237	751.1	–	1.07
373.15 K, x1 = 1	764.4	–	1.17
